From US9067900B2, “Diaminophenothiazine compounds, a method for preparing same and uses thereof” (PHARMA HYDRO DEVELOPMENT—P.H.D., priority 2007, dated 2015)

How the values were obtained:
albino rabbits [1] = test: Skin irritation/corrosion, OCDE 404 classification; assay type: in vivo; settings: 100 mg/l to 1000 mg/l
albino rabbits [2] = test: Eye irritation/corrosion, OCDE 405 classification; assay type: in vivo; settings: 100 mg/l to 1000 mg/l
[3] = tested on: Pseudomonas aeruginosa CIP 103 467; test: Biocidal activity test according to EN standards (EN 1040, EN 1275); assay type: cell-based; settings: 50 to 100 mg/l in distilled water, contact time 15 to 30 mn
[4] = tested on: Escherichia coli CIP 54 127; test: as above; assay type: cell-based; settings: 50 to 100 mg/l in distilled water, contact time 15 to 30 mn
[5] = tested on: Candida albicans IP 48.72; test: as above; assay type: cell-based; settings: under light
Procedure: The biocidal tests were carried out according to Directive NF EN 1040. Tests were conducted at the same time in the dark and under white light, corresponding to a moderate sunshine (400 KJ/M2) using an ordinary incandescent or halogen lamp. Some tests may be carried out up to 1.3 mW/Cm^2 […] The color change is all the more fast that the solution is illuminated under white light. The tests are performed in sterile glass flasks according to disinfection test standards. Illumination is a sun light illumination or an artificial light illumination and is compared with tests carried out in the dark (glass material is wrapped with aluminium foil). Biocidal activity tests are carried out according to EN standards, for example EN 1040, EN 1275, on reference microbial strains registered under ATCC and CIP, and validated by an accredited laboratory. […] These tests validate as biocide agents as defined by the European pharmacopoeia if the infectious titer reduction is higher than 5. Tests are carried out under white light versus a control in the dark. In all cases, white light accelerates the biocidal phenomenon, for example the biocidal activity under light requires a 15 min-contact time, as opposed to 30 mn in the dark. It should be noted that the DAP 2,8 series may have a “range effect”, that is to say there is a concentration range that is more efficient as compared to higher concentrations.

[6] = tested on: Legionella pneumophila subsp pneumophila CIP 103 854; assay type: cell-based; settings: 100 mg/l in distilled water, contact time 15 to 30 mn; dichlorhydrate solution

## CCCN(CCC)c1ccc2c(c1)Nc1cc(N3CCN(C)CC3)ccc1S2 [Example 8, [8-(4-Methyl-piperazin-1-yl)-10H-phenothiazin-2-yl]-dipropylamine]
other
  melting point: 122 to 124 °C

## CCCCN(CCCC)c1ccc2c(c1)Nc1cc(N3CCN(C)CC3)ccc1S2 [Example 11, N,N-Dibutyl-[8-(4-methylpiperazin-1-yl)-10H-phenothiazin-2-yl]amine]
other
  melting point: 150 to 152 °C

## CN(C)c1ccc2c(c1)Nc1cc(N(C)C)ccc1S2 [Example 1, N,N,N′,N′-tetramethyl-10H-phenothiazine-2,8-diamine]
Albino rabbits [1]
  irritant or corrosive activity, skin: non-irritant
Albino rabbits [2]
  irritant or corrosive activity, eyes: non-irritant
[3]
  Infectious titer reduction (log): >5.5 log
[4]
  Infectious titer reduction (log): >5.5 log
[5]; 100 mg/l in distilled water, contact time 30 mn
  Infectious titer reduction (log): 3.2 log
[5]; 250 or 500 mg/l, 30 mn of contact
  Infectious titer reduction: < 2.8 log
[6]
  Infectious titer reduction (log): >5.5 log

## CCCNc1ccc2c(c1)Nc1cc(N(C)C)ccc1S2 [Example 13, N,N-Dimethyl-N′-propyl-10H-phenothiazine-2,8-diamine]
other
  melting point: 158 to 160 °C
